The values below come from patent US12398120B2, “Substituted hydantoinamides as ADAMTS7 antagonists” (BAYER AKTIENGESELLSCHAFT, priority 2019, dated 2025).

As usually defined, the IC50 is the midpoint of a concentration-inhibition curve. Lower therefore signals greater potency.

This experiment concerns the target ADAMTS4 (Homo sapiens (Human), UniProt O75173). Briefly: Selectivity assay for ADAMTS-7 modulators: ADAMTS4 (FRET substrate). Format: biochemical. The settings on record: ADAMTS4 (R&D 4307-AD) 50 nM, substrate Dabcyl-EEVKAKVQPY-Glu(Edans)-NH2 1 μM, 120 min, 32° C. The method, then: 1 μl test compound solution (dissolved in DMSO, at the corresponding concentration) or pure DMSO as a control was added per well. The enzymatic reaction was initiated by addition of 25 μl of the respective concentration of the respective FRET substrate (see table 2 below) in reaction buffer.
The increase of fluorescence intensity was measured in appropriate fluorescence plate reader (e.g. TECAN Ultra) using the respective wavelengths for excitation and emission. IC50 values were calculated from percentage of inhibition of enzyme activity as a function of test compound concentration.

SMILES strings stand for the structures.

ADAMTS4, sequence (O75173 213-685): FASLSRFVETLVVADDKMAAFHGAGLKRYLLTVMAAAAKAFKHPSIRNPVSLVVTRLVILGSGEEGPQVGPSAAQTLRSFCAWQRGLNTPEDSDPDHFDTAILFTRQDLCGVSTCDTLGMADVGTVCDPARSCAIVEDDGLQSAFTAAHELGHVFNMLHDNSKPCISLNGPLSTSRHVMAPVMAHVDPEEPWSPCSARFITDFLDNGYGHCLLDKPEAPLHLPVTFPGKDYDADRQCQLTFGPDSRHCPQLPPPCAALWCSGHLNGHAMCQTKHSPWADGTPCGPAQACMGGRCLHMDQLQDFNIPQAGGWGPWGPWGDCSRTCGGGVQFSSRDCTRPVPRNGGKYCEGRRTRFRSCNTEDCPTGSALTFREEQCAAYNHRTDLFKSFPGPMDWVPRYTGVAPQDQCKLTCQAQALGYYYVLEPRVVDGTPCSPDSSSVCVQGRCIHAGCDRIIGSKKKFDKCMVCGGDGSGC

In the case of `CS(=O)(=O)c1ccc(-c2ccccc2C(=O)NC[C@@]2(C3CC3)NC(=O)NC2=O)cc1` [Example 217, N-{[(4R)-4-Cyclopropyl-2,5-Dioxoimidazolidin-4-Yl]Methyl}-4′-(Methanesulfonyl)[1,1′-Biphenyl]-2-Carboxamide], 16 µM corresponded to half-maximal inhibition (IC50).
For `Cc1nc(C2(CNC(=O)c3ccc(F)cc3-c3ccc(C(F)(F)F)cc3)NC(=O)NC2=O)c(C)s1` (racemic) [Example 269, Rac-N-{[4-(2,5-Dimethyl-1,3-Thiazol-4-Yl)-2,5-Dioxoimidazolidin-4-Yl]Methyl}-5-Fluoro-4′-(Trifluoromethyl)[Biphenyl]-2-Carboxamide] the value was 9.5 µM.
`Cc1c(C2(CNC(=O)c3ccccc3-c3ccc(C(F)(F)F)cc3)NC(=O)NC2=O)cnn1C` (stereo not drawn) [Example 31, Ent-N-{[4-(1,5-Dimethyl-1H-Pyrazol-4-Yl)-2,5-Dioxoimidazolidin-4-Yl]Methyl}-4′-(Trifluoromethyl)[Biphenyl]-2-Carboxamide] yielded an IC50 of 6.5 µM.
In the case of `COc1ccc(-c2ccccc2C(=O)NC[C@@]2(C3CC3)NC(=O)NC2=O)cc1` [Example 130, N-{[(4R)-4-Cyclopropyl-2,5-Dioxoimidazolidin-4-Yl]Methyl}-4′-Methoxy[Biphenyl]-2-Carboxamide], the IC50 was 17.3 µM.
With `CC1CCC1C1(CNC(=O)c2ccccc2-c2ccc(C(F)(F)F)cc2)NC(=O)NC1=O` (centres unmarked) [Example 13, Diamix-N-{[4-(2-Methylcyclobutyl)-2,5-Dioxoimidazolidin-4-Yl]Methyl}-4′-(Trifluoromethyl)[Biphenyl]-2-Carboxamide], the concentration for half-maximal inhibition (IC50) was above 50 µM.
In turn, `Cn1nccc1C1(CNC(=O)c2ccc(F)cc2-c2ccc(C(F)(F)F)cc2)NC(=O)NC1=O` (racemic) [Example 183, Rac-5-Fluoro-N-{[4-(1-Methyl-1H-Pyrazol-5-Yl)-2,5-Dioxoimidazolidin-4-Yl]Methyl}-4′-(Trifluoromethyl)[Biphenyl]-2-Carboxamide] came in with an IC50 of 19 µM.
For `O=C1NC(=O)C(CNC(=O)c2ccc(F)cc2-c2ccc(C(F)(F)F)cc2)(c2ccnn2C(F)F)N1` (stereo not drawn) [Example 296, Ent-N-({4-[1-(Difluoromethyl)-1H-Pyrazol-5-Yl]-2,5-Dioxoimidazolidin-4-Yl}Methyl)-5-Fluoro-4′-(Trifluoromethyl)[Biphenyl]-2-Carboxamide], half-maximal inhibition (IC50) required 9.5 µM.
`O=C1NC(=O)[C@](CNC(=O)c2cccnc2-c2ccc(Cl)cc2)(C2CC2)N1` [Example 90, 2-(4-Chlorophenyl)-N-{[(4R)-4-Cyclopropyl-2,5-Dioxoimidazolidin-4-Yl]Methyl}Pyridine-3-Carboxamide] showed an IC50 of 50 µM.
In the case of `Cc1ccc(-c2cc(C(F)(F)F)ccc2C(=O)NC[C@@]2(C3CC3)NC(=O)NC2=O)cc1` [Example 99, N-{[(4R)-4-Cyclopropyl-2,5-Dioxoimidazolidin-4-Yl]Methyl}-4′-Methyl-5-(Trifluoromethyl)[Biphenyl]-2-Carboxamide], the IC50 came out at 4.5 µM.
Compound `O=C1NC(=O)C(CNC(=O)c2ccccc2-c2ccc(C(F)(F)F)cc2)(c2cccnn2)N1` (racemic) [Example 42, Rac-N-{[2,5-Dioxo-4-(Pyridazin-3-Yl)Imidazolidin-4-Yl]Methyl}-4′-(Trifluoromethyl)[Biphenyl]-2-Carboxamide] gave an IC50 above 50 µM.
`Cc1nsnc1C1(CNC(=O)c2ccccc2-c2ccc(C(F)(F)F)cc2)NC(=O)NC1=O` (racemic) [Example 62, Rac-N-{[4-(4-Methyl-1,2,5-Thiadiazol-3-Yl)-2,5-Dioxoimidazolidin-4-Yl]Methyl}-4′-(Trifluoromethyl)[Biphenyl]-2-Carboxamide] had an IC50 of 26 µM.
For `Cn1nccc1C1(CNC(=O)c2cc(F)ccc2-c2ccc(C(F)(F)F)nc2)NC(=O)NC1=O` (single isomer, unassigned; ent-5) [Example 292, Ent-5-Fluoro-N-{[4-(1-Methyl-1H-Pyrazol-5-Yl)-2,5-Dioxoimidazolidin-4-Yl]Methyl}-2-[6-(Trifluoromethyl)Pyridin-3-Yl]Benzamide], 9.5 µM corresponded to half-maximal inhibition (IC50).
On to `O=C1NC(=O)C(CNC(=O)c2ccccc2-c2ccc(C(F)(F)F)cc2)(c2cnccn2)N1` (racemic) [Example 30, Rac-N-{[2,5-Dioxo-4-(Pyrazin-2-Yl)Imidazolidin-4-Yl]Methyl}-4′-(Trifluoromethyl)[Biphenyl]-2-Carboxamide], for which the midpoint of inhibition, the IC50, lay at 45 µM.
The compound `O=C1NC(=O)C(CNC(=O)c2ccc(F)cc2-c2ccc(C(F)(F)F)cc2)(c2ncccc2C(F)(F)F)N1` (racemic) [Example 240, Rac-N-({2,5-Dioxo-4-[3-(Trifluoromethyl)Pyridin-2-Yl]Imidazolidin-4-Yl}Methyl)-5-Fluoro-4′-(Trifluoromethyl)[Biphenyl]-2-Carboxamide] returned an IC50 above 50 µM.
With `O=C1NC(=O)C(CNC(=O)c2ccc(F)c(F)c2-c2ccc(C(F)(F)F)cc2)(C2(F)CC2)N1` (single isomer, unassigned; ent-5) [Example 298, Ent-5,6-Difluoro-N-{[4-(1-Fluorocyclopropyl)-2,5-Dioxoimidazolidin-4-Yl]Methyl}-4′-(Trifluoromethyl)[Biphenyl]-2-Carboxamide], the IC50 turned out to be 9.3 µM.
The figure for `O=C1NC(=O)C(CNC(=O)c2cccc(F)c2-c2ccc(C(F)(F)F)cc2)(C2(F)CC2)N1` (single isomer, unassigned; ent-6) [Example 300, Ent-6-Fluoro-N-{[4-(1-Fluorocyclopropyl)-2,5-Dioxoimidazolidin-4-Yl]Methyl}-4′-(Trifluoromethyl)[Biphenyl]-2-Carboxamide] is 23 µM.
For `Cc1ccc(-c2ccccc2C(=O)NC[C@@]2(C3CC3)NC(=O)NC2=O)cn1` [Example 228, N-{[(4R)-4-Cyclopropyl-2,5-Dioxoimidazolidin-4-Yl]Methyl}-2-(6-Methylpyridin-3-Yl)Benzamide] the value was 20 µM; for `Cn1nccc1C1(CNC(=O)c2c(F)cccc2-c2ccc(C(F)(F)F)cc2)NC(=O)NC1=O` (single isomer, unassigned; ent-3) [Example 186, Ent-3-Fluoro-N-{[4-(1-Methyl-1H-Pyrazol-5-Yl)-2,5-Dioxoimidazolidin-4-Yl]Methyl}-4′-(Trifluoromethyl)[Biphenyl]-2-Carboxamide], 24 µM.
In turn, `O=C1NC(=O)[C@](CNC(=O)c2ccccc2-c2ccc(C3(C(F)(F)F)CC3)cc2)(C2CC2)N1` [Example 115, N-{[(4R)-4-Cyclopropyl-2,5-Dioxoimidazolidin-4-Yl]Methyl}-4′-[1-(Trifluoromethyl)Cyclopropyl][Biphenyl]-2-Carboxamide] showed an IC50 of 7.8 µM.
In the case of `O=C1NC(=O)C(CNC(=O)c2ccccc2-c2ccc(Cl)cc2)(c2ccnn2C(F)F)N1` (single isomer, unassigned; ent-4) [Example 259, Ent-4′-Chloro-N-({4-[1-(Difluoromethyl)-1H-Pyrazol-5-Yl]-2,5-Dioxoimidazolidin-4-Yl}Methyl)[Biphenyl]-2-Carboxamide], the midpoint of inhibition, the IC50, lay at 5.8 µM.
Compound `Cc1scnc1C1(CNC(=O)c2cc(F)ccc2-c2ccc(C(F)(F)F)cc2)NC(=O)NC1=O` (single isomer, unassigned; ent-4) [Example 166, Ent-4-Fluoro-N-{[4-(5-Methyl-1,3-Thiazol-4-Yl)-2,5-Dioxoimidazolidin-4-Yl]Methyl}-4′-(Trifluoromethyl)[Biphenyl]-2-Carboxamide] had an IC50 of 3.25 µM.
For `Cc1cc(C2(CNC(=O)c3ccc(F)cc3-c3ccc(C(F)(F)F)cc3)NC(=O)NC2=O)n(C)n1` (racemic) [Example 276, Rac-N-{[4-(1,3-Dimethyl-1H-Pyrazol-5-Yl)-2,5-Dioxoimidazolidin-4-Yl]Methyl}-5-Fluoro-4′-(Trifluoromethyl)[Biphenyl]-2-Carboxamide], it took 15 µM to reach half-maximal inhibition (IC50).
For `Cn1nccc1C1(CNC(=O)c2ccccc2-c2ccc(C(F)(F)F)nc2)NC(=O)NC1=O` (stereo not drawn) [Example 190, Ent-N-{[4-(1-Methyl-1H-Pyrazol-5-Yl)-2,5-Dioxoimidazolidin-4-Yl]Methyl}-2-[6-(Trifluoromethyl)Pyridin-3-Yl]Benzamide] the value was 12 µM; for `Cc1nscc1C1(CNC(=O)c2ccccc2-c2ccc(C(F)(F)F)cc2)NC(=O)NC1=O` (racemic) [Example 63, Rac-N-{[4-(3-Methyl-1,2-Thiazol-4-Yl)-2,5-Dioxoimidazolidin-4-Yl]Methyl}-4′-(Trifluoromethyl)[Biphenyl]-2-Carboxamide], 13 µM.
In turn, `O=C1NC(=O)[C@](CNC(=O)c2ccc(F)cc2-c2ccc(C3CC3)cc2)(C2CC2)N1` [Example 104, 4′-Cyclopropyl-N-{[(4R)-4-Cyclopropyl-2,5-Dioxoimidazolidin-4-Yl]Methyl}-5-Fluoro[Biphenyl]-2-Carboxamide] registered an IC50 of 8.7 µM.
In the case of `O=C1NC(=O)C(CNC(=O)c2ccccc2-c2ccc(Cl)cc2)(C2(F)CC2)N1` (single isomer, unassigned; ent-4) [Example 251, Ent-4′-Chloro-N-{[4-(1-Fluorocyclopropyl)-2,5-Dioxoimidazolidin-4-Yl]Methyl}[Biphenyl]-2-Carboxamide], the IC50 is 11 µM.
The compound `O=C1NC(=O)[C@](CNC(=O)c2ccc(F)cc2-c2ccc(F)cc2)(C2CC2)N1` [Example 128, N-{[(4R)-4-Cyclopropyl-2,5-Dioxoimidazolidin-4-Yl]Methyl}-4′,5-Difluoro[Biphenyl]-2-Carboxamide] yielded an IC50 of 13 µM.
`O=C1NC(=O)C(CNC(=O)c2ccccc2-c2ccc(Cl)cc2)(C2CC(F)(F)C2)N1` (racemic) [Example 246, Rac-4′-Chloro-N-{[4-(3,3-Difluorocyclobutyl)-2,5-Dioxoimidazolidin-4-Yl]Methyl}[Biphenyl]-2-Carboxamide]: the IC50 was above 50 µM.
In turn, `O=C1NC(=O)C(CNC(=O)c2ccccc2-c2ccc(C(F)(F)F)nc2)(c2cscn2)N1` (stereo not drawn) [Example 277, Ent-N-{[2,5-Dioxo-4-(1,3-Thiazol-4-Yl)Imidazolidin-4-Yl]Methyl}-2-[6-(Trifluoromethyl)Pyridin-3-Yl]Benzamide] yielded a 50% inhibitory concentration (IC50) of 16 µM.
